From US20070049564A1 (Wyeth, priority 2005, published 2007)
Like-named read-outs stand apart in the source and are kept apart here.

What was measured:
E. coli GC 2236 = experiment: MIC, broth microdilution; settings: Escherichia coli
E. coli GC 2235 = experiment: MIC, broth microdilution; settings: Escherichia coli
E. coli GC 2233 = experiment: MIC, broth microdilution; settings: Escherichia coli
Protocol: Antimicrobial susceptibility testing. The in vitro activities of the antibiotics are determined by the broth microdilution method as recommended by the National Committee for Clinical Laboratory Standards (NCCLS) (1). Mueller-Hinton II broth (MHBII)(BBL Cockeysville, Md.) is the medium employed in the testing procedures. Microtiter plates containing serial dilutions of each antimicrobial agent are inoculated with each organism to yield the appropriate density (10^5 CFU/ml) in a 100 μl final volume. The plates are incubated for 18-22 hours at 35° C. in ambient air.
Representative compounds were first incubated in mouse serum for an hour prior to the in vitro testing against a panel of selected gram-positive and gram-negative bacteria strains. All compounds were also pre-incubated in water for an hour prior to testing as control.

E. coli GC 2234 = experiment: MIC, broth microdilution; settings: Escherichia coli
E. coli GC 2270 = experiment: MIC, broth microdilution; settings: Escherichia coli
E. coli GC 2271 = experiment: MIC, broth microdilution; settings: Escherichia coli
E. coli GC 4559 = experiment: MIC, broth microdilution; settings: Escherichia coli
E. coli GC 1073 = experiment: MIC, broth microdilution; settings: Escherichia coli
P. aeruginosa GC 2214 = experiment: MIC, broth microdilution; settings: Pseudomonas aeruginosa
S. aureus GC 1131 = experiment: MIC, broth microdilution; settings: Staphylococcus aureus
S. aureus GC 1079 = experiment: MIC, broth microdilution; settings: Staphylococcus aureus
S. aureus GC 2216 = experiment: MIC, broth microdilution; settings: Staphylococcus aureus
S. aureus GC 6335 = experiment: MIC, broth microdilution; settings: Staphylococcus aureus
S. epidermidis GC 4935 = experiment: MIC, broth microdilution; settings: Staphylococcus epidermidis
E. faecalis GC 2242 = experiment: MIC, broth microdilution; settings: Enterococcus faecalis
E. faecium GC 4556 = experiment: MIC, broth microdilution; settings: Enterococcus faecium
S. pneumoniae+ GC 4465 = experiment: MIC, broth microdilution; settings: Streptococcus pneumoniae
S. pyogenes GC 4563 = experiment: MIC, broth microdilution; settings: Streptococcus pyogenes
c. albicans GC 3066 = experiment: MIC, broth microdilution
Staph. aureus Smith = experiment: In vivo activity (oral, iv; ED50) against Staph. aureus Smith in mice
Protocol: Representative examples of compounds of Formula I were tested for the oral efficacy using S. aureus Smith in mice.

CCCN(CC(=O)Nc1cc(N(C)C)c2c(c1O)C(=O)C1=C(O)[C@]3(O)C(=O)C(C(N)=O)=C(O)[C@@H](N(C)C)[C@@H]3C[C@@H]1C2)C(=O)OCOC(=O)c1ccsc1 [Example 27, ({[(2-{[(5aR,6aS,7S,10aS)-9-(aminocarbonyl)-4,7-bis(dimethylamino)-1,8,10a,11-tetrahydroxy-10,12-dioxo-5,5a,6,6a,7,10,10a,12-octahydrotetracen-2-yl]amino}-2-oxoethyl)(propyl)amino]carbonyl}oxy)methyl thiophene-3-carboxylate]
2 µg/mL: MIC (S. aureus GC 1079; GC1079, read-out: MINIMAL INHIBITORY CONCENTRATION MIC, pre-incubated in Water) | MIC (S. pneumoniae+ GC 4465; read-out: MINIMAL INHIBITORY CONCENTRATION MIC, pre-incubated in Water)
0.25 µg/mL: MIC (S. aureus GC 1131; GC1131, read-out: MINIMAL INHIBITORY CONCENTRATION MIC, pre-incubated in Water) | MIC (S. aureus GC 2216; GC2216, read-out: MINIMAL INHIBITORY CONCENTRATION MIC, pre-incubated in Mouse Serum) | MIC (S. aureus GC 2216; GC2216, read-out: MINIMAL INHIBITORY CONCENTRATION MIC, pre-incubated in Water) | MIC (S. aureus GC 6335; GC6335, read-out: MINIMAL INHIBITORY CONCENTRATION MIC, pre-incubated in Mouse Serum) | MIC (S. epidermidis GC 4935; GC4935, read-out: MINIMAL INHIBITORY CONCENTRATION MIC, pre-incubated in Mouse Serum)
3.9 mg/kg: ED50 (Staph. aureus Smith; Staphylococcus aureus, in Mus musculus, po, read-out: ED50 SOD (Staph aureus Smith)) | ED50 (Staph. aureus Smith; Staphylococcus aureus, in Mus musculus, po, read-out: ED50 Staph Smith SOD)
0.5 µg/mL: MIC (E. coli GC 2236; GC2236, read-out: MINIMAL INHIBITORY CONCENTRATION MIC, pre-incubated in Mouse Serum) | MIC (E. coli GC 2235; GC2235, read-out: MINIMAL INHIBITORY CONCENTRATION MIC, pre-incubated in Mouse Serum) | MIC (E. coli GC 2233; GC2233, read-out: MINIMAL INHIBITORY CONCENTRATION MIC, pre-incubated in Mouse Serum) | MIC (E. coli GC 2234; GC2234, read-out: MINIMAL INHIBITORY CONCENTRATION MIC, pre-incubated in Mouse Serum) | MIC (E. coli GC 2270; GC2270, read-out: MINIMAL INHIBITORY CONCENTRATION MIC, pre-incubated in Mouse Serum) | MIC (E. coli GC 2271; GC2271, read-out: MINIMAL INHIBITORY CONCENTRATION MIC, pre-incubated in Mouse Serum) | MIC (E. coli GC 4559; GC4559, read-out: MINIMAL INHIBITORY CONCENTRATION MIC, pre-incubated in Mouse Serum) | MIC (E. coli GC 1073; GC1073, read-out: MINIMAL INHIBITORY CONCENTRATION MIC, pre-incubated in Mouse Serum) | MIC (S. aureus GC 6335; GC6335, read-out: MINIMAL INHIBITORY CONCENTRATION MIC, pre-incubated in Water) | MIC (E. faecalis GC 2242; GC2242, read-out: MINIMAL INHIBITORY CONCENTRATION MIC, pre-incubated in Mouse Serum) | MIC (E. faecalis GC 2242; GC2242, read-out: MINIMAL INHIBITORY CONCENTRATION MIC, pre-incubated in Water) | MIC (E. faecium GC 4556; GC4556, read-out: MINIMAL INHIBITORY CONCENTRATION MIC, pre-incubated in Mouse Serum)
> 64 µg/mL: MIC (E. coli GC 4559; GC4559, read-out: MINIMAL INHIBITORY CONCENTRATION MIC, pre-incubated in Water) | MIC (E. coli GC 1073; GC1073, read-out: MINIMAL INHIBITORY CONCENTRATION MIC, pre-incubated in Water) | MIC (P. aeruginosa GC 2214; GC2214, read-out: MINIMAL INHIBITORY CONCENTRATION MIC, pre-incubated in Water) | MIC (c. albicans GC 3066; Candida albicans, GC3066, read-out: MINIMAL INHIBITORY CONCENTRATION MIC)
64 µg/mL: MIC (E. coli GC 2236; GC2236, read-out: MINIMAL INHIBITORY CONCENTRATION MIC, pre-incubated in Water) | MIC (E. coli GC 2235; GC2235, read-out: MINIMAL INHIBITORY CONCENTRATION MIC, pre-incubated in Water) | MIC (E. coli GC 2233; GC2233, read-out: MINIMAL INHIBITORY CONCENTRATION MIC, pre-incubated in Water) | MIC (E. coli GC 2234; GC2234, read-out: MINIMAL INHIBITORY CONCENTRATION MIC, pre-incubated in Water) | MIC (E. coli GC 2270; GC2270, read-out: MINIMAL INHIBITORY CONCENTRATION MIC, pre-incubated in Water) | MIC (E. coli GC 2271; GC2271, read-out: MINIMAL INHIBITORY CONCENTRATION MIC, pre-incubated in Water)
>64 UG/ML: MINIMAL INHIBITORY CONCENTRATION MIC (c. albicans GC 3066; pre-incubated in Water)
0.44 mg/kg: ED50 (Staph. aureus Smith; Staphylococcus aureus, in Mus musculus, iv, read-out: ED50 SIV (Staph aureus Smith)) | ED50 (Staph. aureus Smith; iv, read-out: ED50 Staph Smith SIV)
8 µg/mL: MIC (P. aeruginosa GC 2214; GC2214, read-out: MINIMAL INHIBITORY CONCENTRATION MIC, pre-incubated in Mouse Serum)
< 0.06 µg/mL: MIC (S. pyogenes GC 4563; GC4563, read-out: MINIMAL INHIBITORY CONCENTRATION MIC, pre-incubated in Mouse Serum) | MIC (S. pyogenes GC 4563; GC4563, read-out: MINIMAL INHIBITORY CONCENTRATION MIC, pre-incubated in Water)
0.12 µg/mL: MIC (S. aureus GC 1131; GC1131, read-out: MINIMAL INHIBITORY CONCENTRATION MIC, pre-incubated in Mouse Serum)
1 µg/mL: MIC (S. aureus GC 1079; GC1079, read-out: MINIMAL INHIBITORY CONCENTRATION MIC, pre-incubated in Mouse Serum) | MIC (S. epidermidis GC 4935; GC4935, read-out: MINIMAL INHIBITORY CONCENTRATION MIC, pre-incubated in Water) | MIC (E. faecium GC 4556; GC4556, read-out: MINIMAL INHIBITORY CONCENTRATION MIC, pre-incubated in Water) | MIC (S. pneumoniae+ GC 4465; read-out: MINIMAL INHIBITORY CONCENTRATION MIC, pre-incubated in Mouse Serum)
